Test results: patent US20200017495A1, “NOVEL HETEROCYCLIC COMPOUNDS AND THEIR USE IN PREVENTING OR TREATING BACTERIAL INFECTIONS” (priority 2017, published 2020)

How the values were obtained:
[1] = test system: Escherichia coli (ECO) isolates; assay: MIC of compounds alone and combined with antibacterials, broth microdilution (CLSI); assay type: cell-based
Method in brief: (§1)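 Log-phase isolates were inoculated at a final 5.10^5 CFU/mL in cation-adjusted Mueller-Hinton broth and incubated 16-20 h at 35° C in ambient air. MIC was the lowest concentration preventing visible growth; for combinations, the antibacterial MIC was read at each compound concentration.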

[2] = test system: Klebsiella pneumoniae (KPN) isolates; assay: as above; assay type: cell-based
Method in brief: as §1

C=CC1=C(C(=O)O)N2C(=O)[C@@H](NC(=O)/C(=N\OCC(=O)O)c3csc(N)n3)[C@H]2SC1 [FIX, Cefixime]
MIC ([1]; strain ECO UFR184, genotype CTX-M-15, CMY-4, OXA-1, OXA-204): >128 µg/mL
MIC ([1]; strain ECO UFR185, genotype OXA-48): >128 µg/mL
MIC ([1]; strain ECO UFR186, genotype TEM-1, CTX-M-14, OXA-48): 32 µg/mL
MIC ATB in combination ([1]; strain ECO UFR186, with AF2 @ 8 μg/mL): <0.25 µg/mL
MIC ATB in combination ([1]; strain ECO UFR186, with AF3 @ 8 μg/mL): <0.25 µg/mL
MIC ATB in combination ([1]; strain ECO UFR186, with CLA @ 4 μg/mL): 8 µg/mL
MIC ([1]; strain ECO UFR187, genotype CTX-M-15, OXA-48): 32 µg/mL
MIC ATB in combination ([1]; strain ECO UFR187, with AF2 @ 8 μg/mL): <=0.25 μg/mL
MIC ATB in combination ([1]; strain ECO UFR187, with AF3 @ 8 μg/mL): 0.5 µg/mL
MIC ATB in combination ([1]; strain ECO UFR187, with CLA @ 4 μg/mL): 2 µg/mL
MIC ([1]; strain ECO UFR189, genotype TEM-1, CTX-M-15, OXA-48): >128 µg/mL
MIC ATB in combination ([1]; strain ECO UFR189, with AF2 @ 8 μg/mL): <0.25 µg/mL
MIC ATB in combination ([1]; strain ECO UFR189, with AF3 @ 8 μg/mL): <0.25 µg/mL
MIC ATB in combination ([1]; strain ECO UFR189, with CLA @ 4 μg/mL): 4 µg/mL
MIC ([1]; strain ECO UFR190, genotype CTX-M-24, OXA-48): 64 µg/mL
MIC ATB in combination ([1]; strain ECO UFR190, with AF2 @ 8 μg/mL): <0.25 µg/mL
MIC ATB in combination ([1]; strain ECO UFR190, with AF3 @ 8 μg/mL): <0.25 µg/mL
MIC ATB in combination ([1]; strain ECO UFR190, with CLA @ 4 μg/mL): 8 µg/mL
MIC ([1]; strain ECO UFR191, genotype TEM-1, CTX-M-24, OXA-48): >128 µg/mL
MIC ATB in combination ([1]; strain ECO UFR191, with AF2 @ 8 μg/mL): <0.25 µg/mL
MIC ATB in combination ([1]; strain ECO UFR191, with AF3 @ 8 μg/mL): <0.25 µg/mL
MIC ATB in combination ([1]; strain ECO UFR191, with CLA @ 4 μg/mL): 4 µg/mL
MIC ([1]; strain ECO UFR204, genotype TEM-1, CMY-4, OXA-48, VIM-1, antibiotic alone): >128 µg/mL
MIC ATB in combination ([1]; strain ECO UFR204, with AF2 @ 8 μg/mL): <0.25 µg/mL
MIC ATB in combination ([1]; strain ECO UFR204, with AF3 @ 8 μg/mL): <0.25 µg/mL
MIC ATB in combination ([1]; strain ECO UFR204, with CLA @ 4 μg/mL): >128 µg/mL
MIC ([1]; strain ECO UFR205, genotype CTX-M-15, VIM-4, antibiotic alone): >128 µg/mL
MIC ATB in combination ([1]; strain ECO UFR205, with AF2 @ 8 μg/mL): <=0.25 μg/mL
MIC ATB in combination ([1]; strain ECO UFR205, with AF3 @ 8 μg/mL): <=0.25 μg/mL
MIC ATB in combination ([1]; strain ECO UFR205, with CLA @ 4 μg/mL): >128 µg/mL
MIC ([1]; strain ECO UFR206, genotype TEM-1, CTX-M-15, OXA-1, VIM-4, antibiotic alone): >128 µg/mL
MIC ATB in combination ([1]; strain ECO UFR206, with AF2 @ 8 μg/mL): >128 µg/mL
MIC ATB in combination ([1]; strain ECO UFR206, with AF3 @ 8 μg/mL): >128 µg/mL
MIC ATB in combination ([1]; strain ECO UFR206, with CLA @ 4 μg/mL): >128 µg/mL
MIC ([1]; strain ECO UFR207, genotype CTX-M-15): >128 µg/mL
MIC ([1]; strain ECO UFR208, genotype SHV-12): >128 µg/mL
MIC ([1]; strain ECO UFR209, compound alone): 1024 µg/mL
MIC ([1]; strain ECO UFR209, genotype TEM-1, CTX-M-15): 1024 µg/mL
MIC ([1]; strain ECO UFR210, genotype SHV-12): 32 µg/mL
MIC ([1]; strain ECO UFR211, genotype TEM-24): >128 µg/mL
MIC ([1]; strain ECO UFR212, genotype CMY-2): >128 µg/mL
MIC ([1]; strain ECO UFR218, genotype TEM-1, SHV-1, CTX-M-15): >128 µg/mL
MIC ([1]; strain ECO UFR252GO, genotype VIM-2, antibiotic alone): >128 µg/mL
MIC ATB in combination ([1]; strain ECO UFR252GO, with AF2 @ 8 μg/mL): <0.25 µg/mL
MIC ATB in combination ([1]; strain ECO UFR252GO, with AF3 @ 8 μg/mL): <0.25 µg/mL
MIC ATB in combination ([1]; strain ECO UFR252GO, with CLA @ 4 μg/mL): >128 µg/mL
MIC ([1]; strain ECO UFR255, genotype NDM-1, antibiotic alone): >128 µg/mL
MIC ATB in combination ([1]; strain ECO UFR255, with AF2 @ 8 μg/mL): <0.25 µg/mL
MIC ATB in combination ([1]; strain ECO UFR255, with AF3 @ 8 μg/mL): <0.25 µg/mL
MIC ATB in combination ([1]; strain ECO UFR255, with CLA @ 4 μg/mL): >128 µg/mL
MIC ATB in combination ([2]; KPN 6299, AF2 @ 8 μg/mL): <=0.25 μg/mL
MIC ATB in combination ([2]; KPN 6299, AF3 @ 8 μg/mL): <=0.25 μg/mL
MIC ATB in combination ([2]; KPN 6299, CLA @ 4 μg/mL): 8 µg/mL
MIC ATB in combination ([2]; KPN 110376, AF2 @ 8 μg/mL): <0.25 µg/mL
MIC ATB in combination ([2]; KPN 110376, AF3 @ 8 μg/mL): <=0.25 μg/mL
MIC ATB in combination ([2]; KPN 110376, CLA @ 4 μg/mL): 128 µg/mL
MIC ATB in combination ([2]; KPN 121206, AF2 @ 8 μg/mL): >128 µg/mL
MIC ATB in combination ([2]; KPN 121206, AF3 @ 8 μg/mL): >128 µg/mL
MIC ATB in combination ([2]; KPN 121206, CLA @ 4 μg/mL): >128 µg/mL
MIC ATB in combination ([2]; KPN 131119, AF2 @ 8 μg/mL): <=0.25 μg/mL
MIC ATB in combination ([2]; KPN 131119, AF3 @ 8 μg/mL): <=0.25 μg/mL
MIC ATB in combination ([2]; KPN 131119, CLA @ 4 μg/mL): >128 µg/mL
